Test results: US9333202B2, “Non-retinoid antagonists for treatment of age-related macular degeneration and stargardt disease” (THE TRUSTEES OF COLUMBIA UNIVERSITY IN THE CITY OF NEW YORK, priority 2012, dated 2016)
“Also recorded” adds a separate entry of the source.

Legend:
[1] = Observation of toxicity signs during 6 week chronic dosing; format: in vivo; details: 6 week-long chronic dosing, 30 mg/kg daily oral
Experimental: Ten week-old Abca4 null mutant mice (129/SV×C57BL/6J) bred as previously described were used in the study. Abca4−/− (knockout) and Abca4+/+(wild-type) mice were raised under 12 h on-off cyclic lighting with an in-cage illuminance of 30-50 lux. For long-term oral dosing A1120 was formulated into Purina 5035 rodent chow at Research Diets, Inc. (New Brunswick, N.J.) to ensure consistent 30 mg/kg daily oral dosing. Animals were administered the A1120-containing chow for 6 weeks.
To determine whether A1120 has an effect on retinal production of lipofuscin fluorophores we administered the compound at the daily 30 mg/kg dose to Abca4−/− mice for a period of 6 weeks. Blood samples collected from the treatment and control groups at baseline, Day 21 and Day 42 were used to measure serum RBP4 in order to correlate RBP4 levels with reduction in formation of lipofuscin bisretinoids. […] Levels of lipofuscin fluorophores (A2E, A2-DHP-PE and all-trans-retinal dimer-PE) were determined at the end of the 42-day treatment period using quantitative HPLC.
Administration of A1120 reduces the production of A2E, A2-DHP-PE, and atRAL di-PE in A1120-treated Abca4−/− mice in comparison to the vehicle-treated Abca4−/− animals by approximately 50%.

insulin sensitivity = details: mouse diabetes models; cited from earlier work
RBP4-TTR interaction [2] = molecular target: T1, RBP4-TTR interaction (Homo sapiens, UniProt P02753); experiment: TR-FRET (HTRF) assay for antagonists of retinol-induced RBP4-TTR interaction, agonist and antagonist mode (Example 2); format: biochemical; parameters: made in house; host or cells: E. coli; details: agonist mode, dose titration
Excerpt: TR-FRET (Time-Resolved Fluorescence Resonance Energy Transfer) is an assay format that can be used in characterization of compounds affecting protein-protein interactions (31-33). […] In the presence of retinol, RBP4-TTR interaction induces FRET that can be registered as increased ratio of […] fluorescence signals. Binding of a desired RBP4 antagonist displaces retinol and induces hindrance for RBP4-TTR interaction resulting in the decreased FRET signal (FIG. 7).
The assay was developed using E. coli-expressed MBP-tagged RBP4 and commercially available TTR labeled directly with Eu3+ cryptate. In addition to MBP-RBP4 and Eu3+ (K)-TTR, a detector reagent anti-MBP-d2 was present in the mix. The assay was first optimized in the agonist mode; sensitivity and dynamic range of the assay was […] in respect to RBP4, TTR and detection reagent concentrations.

RBP4-TTR interaction [3] = molecular target: T1, RBP4-TTR interaction; experiment: HTRF/TR-FRET assay for retinol-dependent RBP4-TTR interaction (1 μM retinol); format: biochemical; parameters: human RBP4 fragment (amino acids 19-201) was expressed in the Gold(DE3)pLysS E. coli strain; made in house; host or cells: E. coli Gold(DE3)pLysS (Stratagene), pMAL-c4x vector
Excerpt: Bacterially expressed MBP-RBP4 and untagged TTR were used in this assay. For the use in the TR-FRET assay the maltose binding protein (MBP)-tagged human RBP4 fragment (amino acids 19-201) was expressed in the Gold(DE3)pLysS E. coli strain (Stratagene) using the […] vector. Following cell lysis, recombinant RBP4 was purified from the soluble fraction using the ACTA FPLC system (GE Healthcare) equipped with the 5-ml the MBP Trap HP column. Human untagged TTR was purchased from Calbiochem. Untagged TTR was labeled directly with Eu^3+ Cryptate-NHS using the HTRF Cryptate Labeling kit from CisBio following the manufacturer's recommendations. HTRF assay was performed in white low volume 384 well plates (Greiner-Bio) in a final assay volume of 16 μl per well. The reaction buffer contained 10 mM Tris-HCl pH 7.5, 1 mM DTT, 0.05% NP-40, 0.05% Prionex, 6% glycerol, and 400 mM KF. Each reaction contained 60 nM MBP-RBP4 and 2 nM TTR-Eu along with 26.7 nM of anti-MBP antibody conjugated with d2 (Cisbio). Titration of test compounds in this assay was conducted in the presence of 1 μM retinol. All reactions were assembled in the dark under dim red light and incubated overnight at +4° C. wrapped in aluminum foil. TR-FRET signal was measured in the SpectraMax M5e Multimode Plate Reader (Molecular Device). Fluorescence was excited at 337 nm and two readings per well were taken: Reading 1 for time-gated energy transfer from Eu(K) to d2 (337 nm excitation, 668 nm emission, counting delay 75 microseconds, counting window 100 microseconds) and Reading 2 for Eu(K) time-gated fluorescence (337 nm excitation, 620 nm emission, counting delay 400 microseconds, counting window 400 microseconds). The TR-FRET signal was expressed as the ratio of fluorescence intensity: Flu665/Flu620×10,000.

Which results are given for `O=C(O)c1ccccc1NC(=O)N1CCC(c2ccccc2C(F)(F)F)CC1` [Compound 1, 2(4-(2-(trifluoromethyl)phenyl)piperidine-1-carboxamido)benzoic acid]?
Signs of compound toxicity such as weight loss or reduction in food consumption [1]: did not note any obvious signs of compound toxicity; Effect on insulin sensitivity (insulin sensitivity): did not improve insulin sensitivity; Induction of RBP4-TTR interaction (RBP4-TTR interaction [2]): did not induce RBP4-TTR interaction; Antagonism of RBP4-TTR interaction in vitro (in words) (RBP4-TTR interaction [3]): antagonize retinol-dependent RBP4-TTR interaction; also recorded: disrupt retinol-induced RBP4-TTR interaction; also recorded: antagonize RBP4-TTR interaction in vitro at biologically significant concentrations
